Test results published in US8653023B1, “Dual beneficial effect of dopamine enhancing and neuroprotective actions of PKC delta inhibitors for treatment of Parkinson's disease” (Iowa State University Research Foundation, Inc., priority 2006, dated 2014).
Like-named read-outs stand apart in the source and are kept apart here.

What was measured:
Akt = details: cited from earlier work
PKA = details: cited from earlier work
[1] = system: MPTP-treated C57 black mice; experiment: TH protein level in SN of MPTP-treated mice (Western blot); format: in vivo; details: all doses of rottlerin, MPTP 30 mg/kg 5 days
Method: Six to 8-week-old […] mice weighing 30 g were housed in standard conditions: constant temperature (22±1° C.), humidity (relative, 30%) and a 12-h light/dark cycle, and were allowed free access to food and water. The animals and protocol procedures were approved and supervised by the Committee on Animal Care (COAC) at the Iowa State University. Rottlerin was dissolved in 1% dimethyl sulfoxide (DMSO) and was administered intraperitoneally at various doses. An equal volume of DMSO was given to controls. Rottlerin and DMSO administrations were started 24 h before the injections of the MPTP and continued for 5 days in the MPTP model. In the chronic regimens of MPTP administration, MPTP in phosphate-buffered saline (PBS) was injected intraperitoneally at doses of 30 mg/kg, once a day. Mice were sacrificed 2 days after the MPTP injections, and the striata were dissected for catecholamine analysis. […]
brain lysates containing equal amounts of protein were loaded in each lane and separated on a 10-12% SDS-PAGE gel as described previously (Kaul, Kanthasamy et al. 2003). […] Secondary antibody-bound proteins were detected using Amersham's ECL chemiluminescence kit. […] Western blot images were captured with a Kodak […] imaging system and data were analyzed using 1D Kodak imaging analysis software.

[2] = system: primary mesencephalic dopaminergic neuronal cells; format: cell-based, mice; details: 10 μM MPP+, 48 hrs
Method: Primary mesencephalic neuronal cultures were prepared from the ventral mesencephalon of gestational 16-18-day-old mice embryos as described previously (Yang et al., 2004). Mesencephalic tissues were dissected and maintained in ice-cold Ca^2+-free HESS and then dissociated in HESS solution containing trypsin-EDTA (0.25%) for 20 min at 37° C. The dissociated cells were then plated at equal density (0.5×10^6 cells) in 30-mm-diameter tissue culture wells precoated with poly-D-lysine (1 mg/ml). Cultures were maintained in a chemically defined medium consisting of neurobasal medium fortified with B-27 supplements, L-glutamine (500 μM), penicillin (100 IU/ml), and streptomycin (100 μg/ml) (Life Technologies). The cells were maintained in a humidified CO2 incubator (5% CO2, 37° C.) for 24 hr and then treated with cytosine arabinoside (10 μM) for 24 hr to inhibit glial cell proliferation. Half of the culture medium was replaced every 2 days. Approximately 6-7-day-old cultures were used for experiments. […]
After treatment, the primary mesencephalic neurons were fixed with 4% paraformaldehyde and processed for immunocytotochemical staining. […] Then the coverslips containing stained cells were washed with PBS, mounted on a slide, and viewed under a Nikon inverted fluorescence microscope (Model TE-2000U); images were captured with a SPOT digital camera (Diagnostic Instruments, Sterling Heights, Mich.).
We used Metamorph software (Universal Imaging, Version 5.0) for measurement of TH^+ cells and neuronal processes in primary neurons from each coverslip. For measurement of TH cell count, the images were first thresholded, and then neuronal count and volume were measured using the Integrated Morphometry Analysis (IMA) function. The data were logged to an Excel spreadsheet with defined row and column positions and then analyzed. […] The data were exported to an Excel spreadsheet and analyzed. TH^+ neurons and their processes were counted in at least six individual cultures for each treatment. This method is a modified version of methodology recently used for quantification of neuronal processes.

PP2A = PP2A phosphatase activity in N27 cells (Serine/Threonine phosphatase assay kit); format: cell-based, rat; details: rottlerin vs DMSO, PKCδ-DN vs LacZ
Method: To determine PP2A phosphatase activity, we used the Serine/Threonine phosphatase assay kit from Promega. Briefly, N27 cells and substantia nigral tissue from mouse brain were homogenized in lysis buffer (25 mM Tris-HCl, 10 mM β-mercaptoethanol, 2 mM EDTA, protease inhibitor) supplied with the kit. After centrifugation, the supernatants were used for the assay. PP2A activity was determined by measuring the amount of free phosphate generated in a reaction by measuring the absorbance of a molybdate:malachite green: phosphate complex at 600 nm using the Spectramax plate reader (Molecular Devices). The effective range for the detection of phosphate released in this assay is 100-4,000 pmol of phosphate.

SRC kinase = SRC kinase (Homo sapiens, UniProt P12931); details: cited from earlier work
NZM mice = details: in vivo treatment; cited from earlier work
macrophages = details: pretreatment, cited from earlier work

Sequence of SRC kinase (P12931 whole entry): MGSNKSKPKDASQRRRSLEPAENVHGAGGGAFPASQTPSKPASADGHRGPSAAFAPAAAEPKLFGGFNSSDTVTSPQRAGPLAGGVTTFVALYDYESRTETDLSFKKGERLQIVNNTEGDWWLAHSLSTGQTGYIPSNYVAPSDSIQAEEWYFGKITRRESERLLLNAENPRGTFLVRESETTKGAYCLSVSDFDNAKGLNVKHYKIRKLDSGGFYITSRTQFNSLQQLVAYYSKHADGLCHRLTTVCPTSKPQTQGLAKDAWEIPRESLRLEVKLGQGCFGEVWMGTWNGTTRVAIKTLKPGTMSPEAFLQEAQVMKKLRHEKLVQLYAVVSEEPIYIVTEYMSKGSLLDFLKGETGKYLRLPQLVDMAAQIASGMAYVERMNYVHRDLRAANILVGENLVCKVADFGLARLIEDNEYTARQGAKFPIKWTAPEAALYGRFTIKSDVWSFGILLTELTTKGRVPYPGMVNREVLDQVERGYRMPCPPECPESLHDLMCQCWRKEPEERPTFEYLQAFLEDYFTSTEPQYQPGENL

SMILES: CC(=O)c1c(O)c(C)c(O)c(Cc2c(O)c3c(c(C(=O)/C=C/c4ccccc4)c2O)OC(C)(C)C=C3)c1O [rottlerin]
- TPA-induced dephosphorylation of Akt (Akt): inhibited
- inhibition (PKA): weak inhibitor
- TH protein level in SN [1]: attenuate loss of TH protein
- MPP+-induced degeneration of TH+ neurons and their processes ([2]; 0.3 μM rottlerin): significantly blocked
- MPP+-induced degeneration of TH+ neurons and their processes ([2]; 1 μM rottlerin): significantly blocked
- reduction of PP2A activity (PP2A): 31%
- inhibition (SRC kinase): inactive
- exacerbation of autoimmunity by silica exposure (NZM mice): significantly decreased
- suppression of UV-B-induced DNA fragmentation (macrophages; 1 μM): approximately 30%
- suppression of UV-B-induced DNA fragmentation (macrophages; 10 μM): ~50%
